Drawing on PubChem BioAssay (NCI), this text covers GI50 and TGI for eight molecules.

Test in all cases: NCI anticancer screen, dose series, 48 h
Assay [1] relates to LOX IMVI melanoma.
Assay [2] relates to KM12 colon.
Assay [3] deals with UACC-62 melanoma.
Assay [4] concerns NCI-H226 lung.
The subject of assay [5] is MALME-3M melanoma.
The test system of assay [6] is CCRF-CEM leukemia.
Assay [7] has as its system SF-268 CNS.
Assay [8] has as its system RPMI-8226 leukemia.
Assay [9] concerns NCI-H460 lung.
Assay [10] relates to T-47D breast.

Where “and” joins values, the source holds several entries; their conditions need not be identical. Equal values may be shown once.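 Exposure lasted 48 hours, with cells grown in 96-well plates and compounds tested at five concentrations. At the GI50, growth is halved. TGI is the concentration that stops growth completely.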

Turning to `CN(C)c1ccc(/C=C(\C#N)c2ccccc2)cc1`, the GI50 in assay [1] is 0.777 µM and 0.605 µM and 0.404 µM; in [2] it was 0.307 µM and 0.425 µM and 0.437 µM; in [3] it was 0.312 µM and 0.36 µM and 0.52 µM; in [4], 4.7 µM and 13.3 µM and 24 µM; in [5] it was 2.58 µM and 18 µM; in assay [6], 0.332 µM and 0.553 µM and 0.595 µM. The GI50 in assay [8] was 0.288 µM and 0.648 µM; in assay [9] it was 0.356 µM and 0.415 µM and 0.431 µM; in assay [10], 0.446 µM and 0.534 µM and 0.473 µM. Also, the TGI in assay [1] is > 100 µM and 43.1 µM; in [2], 21.8 µM and > 100 µM; in [3], above 100 µM; in [4], above 100 µM; in assay [5], above 100 µM; in assay [6] it was 13.4 µM and > 100 µM. Also, the TGI in assay [7] and in assay [10] was above 100 µM throughout.

`NS(=O)(=O)c1ccc(N=Nc2c(O)[nH]c3ccc(C(=O)NCCc4cnc[nH]4)cc23)cc1`: the GI50 in assay [1], in assay [2], in [3], in assay [4], in assay [5] and in [6] was above 25 µM each time. For the same molecule, the GI50 in assay [7], in [8], in assay [9] and in assay [10] was above 25 µM in each case. For the same molecule, the TGI in assay [1], in [2], in [3], in assay [4], in assay [5] and in assay [6] was above 25 µM throughout. The TGI in [7], in assay [8], in assay [9] and in assay [10] was above 25 µM throughout.

For the molecule `NC(CP(=O)(O)O)C(=O)O` (configuration not stated), the TGI in assay [1], in [2], in assay [3], in assay [4], in assay [5] and in assay [6] was above 100 µM each time. Moreover, the TGI in assay [7], in assay [8], in assay [9] and in [10] was above 100 µM throughout.

Regarding `Cc1cc(O[C@@H]2O[C@@H](C)[C@H](O)[C@@H](O)[C@H]2O)c2c3c(c(O[C@@H]4O[C@@H](C)[C@H](O)[C@@H](O)[C@H]4O)cc2c1)C(=O)c1c(O)cccc1C3=O`, the GI50 in assay [1], in assay [2], in assay [3], in assay [4], in assay [5] and in [6] was above 30 µM in each case. In addition, the GI50 in [7], in assay [8], in assay [9] and in assay [10] was above 30 µM each time. In addition, the TGI in assay [1], in [2], in [3], in assay [4], in assay [5] and in assay [6] was above 30 µM each time. In addition, the TGI in assay [7], in assay [8], in assay [9] and in assay [10] was above 30 µM throughout.

In the case of `CC(=O)OC1CC2C(C)(C)CCC[C@]2(C)C2=C1C(O)=C(C(C)C)C(=O)C2=O` (some centres not stated), the GI50 was 1.15 µM in assay [1]; 0.644 µM in assay [2]; 0.323 µM in assay [3]; 0.589 µM in assay [4]; 0.341 µM in [5]; 1.12 µM in [6]. Also, the GI50 is 0.902 µM in [7], 0.466 µM in [8], 0.354 µM in assay [9] and 0.739 µM in assay [10]. The TGI in [1] worked out at 2.95 µM; in assay [2], 2.15 µM; in [3], 1.42 µM; in assay [4], 2.12 µM; in assay [5] it was 1.59 µM; in assay [6] it was 7.03 µM. Further, the TGI in [7] came out at 10.1 µM; in assay [8], 4.08 µM; in assay [9], 1.69 µM; in assay [10], 4.98 µM.

Take `COc1ccc(C2=NN(C=O)C(c3ccc(OS(=O)(=O)c4ccc(C)cc4)c(OC)c3)C2)cc1` (configuration not stated): the GI50 in [1] was 9.41 µM; in [2], 9.23 µM; in assay [3] it was 3.73 µM; in assay [4] it was 8.81 µM; in assay [5], 7.09 µM; in [6], 4.05 µM. In addition, the GI50 in assay [7] is 17.2 µM; in assay [8], 4.12 µM; in assay [9], 8.86 µM; in assay [10], 2.27 µM. The TGI in assay [1] was above 100 µM; in [2] it was above 100 µM; in assay [3], above 100 µM; in assay [4] it was above 100 µM; in assay [5], 49.3 µM; in [6], above 100 µM. The TGI in [7], in assay [8], in assay [9] and in assay [10] was above 100 µM in each case.

For the molecule `CC(C)(C)[Si](C)(C)OC1[C@@H](O[Si](C)(C)C(C)(C)C)[C@@H](CNC(=O)NC(=O)NC(=O)CCl)O[C@H]1n1cnc2c(NC(=O)Nc3ccccc3)ncnc21` (some centres not stated), the GI50 in assay [1] is 0.236 µM; in assay [2], 1.84 µM; in assay [3] it was 8.41 µM; in assay [4], 8.67 µM; in [5] it was 1.34 µM; in assay [6], 0.127 µM. Moreover, the GI50 in assay [7] was 4.51 µM; in assay [8] it was 1.56 µM; in assay [9] it was 2.23 µM; in assay [10], 8.59 µM. Further, the TGI in assay [1] was 0.52 µM; in assay [2], 6.12 µM; in assay [3], 18.6 µM; in assay [4] it was 15.9 µM; in assay [5], 3.64 µM; in assay [6] it was 0.334 µM. Moreover, the TGI in assay [7] is 14 µM; in assay [8] it was 5.95 µM; in assay [9] it was 12.1 µM; in assay [10], 17.5 µM.

Take `O=C(NCCCl)NCCN1c2nc3ccccc3cc2Sc2cc3ccccc3nc21`: the GI50 in assay [1] is 2.36 µM; in assay [2], 2.67 µM; in [3], 1.62 µM; in assay [4], 1.82 µM; in assay [5] it was 0.968 µM; in assay [6], 0.3 µM. For the same molecule, the GI50 in assay [7] was 3.63 µM; in assay [8] it was 0.245 µM; in assay [9] it was 0.475 µM; in assay [10], 2.04 µM. The TGI in [1] was 14.6 µM; in [2], 16.1 µM; in assay [3], 18.2 µM; in assay [4] it was 19 µM; in assay [5], 15.4 µM; in assay [6], 3.62 µM. Also, the TGI in assay [7] is above 41 µM; in assay [8], 1.64 µM; in [9], 1.94 µM; in assay [10] it was 12 µM.
